# Data as given in ChEMBL document CHEMBL1949544, “Proteasome inhibitors from Neoboutonia melleri” (J Nat Prod, 2012).
# System: DLD-1
# Test: Inhibition of proteasome activity in human DLD1 cells expressing 4-ubiquitin luciferase reporter protein assessed increase of luciferase signal at 10 uM after 7 hrs relative to control
row,Structure (SMILES),fold change (FC)
1,C=C(C(=O)[C@H](O)[C@@H](C)[C@H]1[C@@H](OC(C)=O)C[C@@]2(C)[C@@H]3CC[C@H]4[C@H](C)C(=O)C=C[C@@]45C[C@@]35CC[C@]12C)[C@@H](C)CO,2.9
2,C=C(C(=O)[C@H](OC(C)=O)[C@@H](C)[C@H]1[C@@H](OC(C)=O)C[C@@]2(C)[C@@H]3CC[C@H]4[C@H](C)C(=O)[C@H](O)[C@H]5C[C@]54C3=CC[C@]12C)[C@@H](C)CO,15
3,CC(=O)O[C@H]1C[C@@]2(C)[C@@H]3CC[C@H]4[C@H](C)C(=O)C=C[C@@]45C[C@@]35CC[C@]2(C)[C@H]1[C@H](C)[C@@H](O)C(=O)C=C(C)C,53
4,C=C(C(=O)[C@H](O)[C@@H](C)[C@H]1[C@@H](OC(C)=O)C[C@@]2(C)[C@@H]3CC[C@H]4[C@H](C)C(=O)CC[C@@]45C[C@@]35CC[C@]12C)[C@@H](C)CO,77
5,CC(=O)O[C@H]1C[C@@]2(C)[C@@H]3CC[C@H]4[C@H](C)C(=O)C=C[C@@]45C[C@@]35CC[C@]2(C)[C@H]1[C@H](C)[C@@H](OC(C)=O)C(=O)C=C(C)C,44
6,C=C1C(C)CO[C@@]12C[C@@H](C)[C@H]1[C@H](C[C@@]3(C)[C@@H]4CC[C@H]5[C@](C)(C(=O)O)[C@@H](O)CC[C@@]56C[C@@]46CC[C@]13C)O2 (some centres undefined),1.3

# Results, then the compound that gave them:
row,fold change (FC),Structure (SMILES)
1,31,C=C(C(=O)[C@H](OC(C)=O)[C@@H](C)[C@H]1[C@@H](OC(C)=O)C[C@@]2(C)[C@@H]3CC[C@H]4[C@H](C)C(=O)C=C[C@@]45C[C@@]35CC[C@]12C)[C@@H](C)C=O
2,48,C=C(C(=O)[C@H](OC(C)=O)[C@@H](C)[C@H]1[C@@H](OC(C)=O)C[C@@]2(C)[C@@H]3CC[C@H]4[C@H](C)C(=O)CC[C@@]45C[C@@]35CC[C@]12C)[C@@H](C)CO
3,15,C=C(C(=O)[C@H](OC(C)=O)[C@@H](C)[C@H]1[C@@H](OC(C)=O)C[C@@]2(C)[C@@H]3[C@H]4O[C@H]4[C@H]4[C@H](C)C(=O)C=C[C@@]45C[C@@]35CC[C@]12C)[C@@H](C)CO

# System: DLD-1
# Test: Inhibition of proteasome activity in human DLD1 cells expressing 4-ubiquitin luciferase reporter protein assessed increase of luciferase signal at 5 uM after 7 hrs relative to control
row,Structure (SMILES),fold change (FC)
1,C=C(C(=O)[C@H](O)[C@@H](C)[C@H]1[C@@H](OC(C)=O)C[C@@]2(C)[C@@H]3CC[C@H]4[C@H](C)C(=O)C=C[C@@]45C[C@@]35CC[C@]12C)[C@@H](C)CO,28
2,C=C(C(=O)[C@H](OC(C)=O)[C@@H](C)[C@H]1[C@@H](OC(C)=O)C[C@@]2(C)[C@@H]3CC[C@H]4[C@H](C)C(=O)[C@H](O)[C@H]5C[C@]54C3=CC[C@]12C)[C@@H](C)CO,1.9
3,C=C(C(=O)[C@H](O)[C@@H](C)[C@H]1[C@@H](OC(C)=O)C[C@@]2(C)[C@@H]3CC[C@H]4[C@H](C)C(=O)C=C[C@]45C[C@]35CC[C@]12C)[C@@H](C)CO,9.1
4,CC(=O)O[C@H]1C[C@@]2(C)[C@@H]3CC[C@H]4[C@H](C)C(=O)C=C[C@@]45C[C@@]35CC[C@]2(C)[C@H]1[C@H](C)[C@@H](O)C(=O)C=C(C)C,5.2
5,C=C(C(=O)[C@H](O)[C@@H](C)[C@H]1[C@@H](OC(C)=O)C[C@@]2(C)[C@@H]3CC[C@H]4[C@H](C)C(=O)CC[C@@]45C[C@@]35CC[C@]12C)[C@@H](C)CO,10
6,CC(=O)O[C@H]1C[C@@]2(C)[C@@H]3CC[C@H]4[C@H](C)C(=O)C=C[C@@]45C[C@@]35CC[C@]2(C)[C@H]1[C@H](C)[C@@H](OC(C)=O)C(=O)C=C(C)C,34
7,C=C1C(C)CO[C@@]12C[C@@H](C)[C@H]1[C@H](C[C@@]3(C)[C@@H]4CC[C@H]5[C@](C)(C(=O)O)[C@@H](O)CC[C@@]56C[C@@]46CC[C@]13C)O2 (some centres undefined),1.3

# Other lines, results leading:
row,fold change (FC),Structure (SMILES)
1,48,C=C(C(=O)[C@H](OC(C)=O)[C@@H](C)[C@H]1[C@@H](OC(C)=O)C[C@@]2(C)[C@@H]3CC[C@H]4[C@H](C)C(=O)C=C[C@@]45C[C@@]35CC[C@]12C)[C@@H](C)COC(C)=O
2,35,C=C(C(=O)[C@H](O)[C@@H](C)[C@H]1[C@@H](OC(C)=O)C[C@@]2(C)[C@@H]3C[C@@H](O)[C@H]4[C@H](C)C(=O)C=C[C@@]45C[C@@]35CC[C@]12C)[C@@H](C)CO
3,70,C=C(C(=O)[C@H](OC(C)=O)[C@@H](C)[C@H]1[C@@H](OC(C)=O)C[C@@]2(C)[C@@H]3CC[C@H]4[C@H](C)C(=O)C=C[C@@]45C[C@@]35CC[C@]12C)[C@@H](C)C=O
4,45,C=C(C(=O)[C@H](OC(C)=O)[C@@H](C)[C@H]1[C@@H](OC(C)=O)C[C@@]2(C)[C@@H]3CC[C@H]4[C@H](C)C(=O)CC[C@@]45C[C@@]35CC[C@]12C)[C@@H](C)CO
5,72,C=C(C(=O)[C@H](OC(C)=O)[C@@H](C)[C@H]1[C@@H](OC(C)=O)C[C@@]2(C)[C@@H]3[C@H]4O[C@H]4[C@H]4[C@H](C)C(=O)C=C[C@@]45C[C@@]35CC[C@]12C)[C@@H](C)CO
6,31,C=C(C(=O)[C@H](OC(C)=O)[C@@H](C)[C@H]1[C@@H](OC(C)=O)C[C@@]2(C)[C@@H]3C[C@@H](O)[C@H]4[C@H](C)C(=O)C=C[C@@]45C[C@@]35CC[C@]12C)[C@@H](C)CO

# System: DLD-1
# Test: Inhibition of proteasome activity in human DLD1 cells expressing 4-ubiquitin luciferase reporter protein assessed increase of luciferase signal at 1 uM after 7 hrs relative to control
row,Structure (SMILES),fold change (FC)
1,C=C(C(=O)[C@H](O)[C@@H](C)[C@H]1[C@@H](OC(C)=O)C[C@@]2(C)[C@@H]3CC[C@H]4[C@H](C)C(=O)C=C[C@@]45C[C@@]35CC[C@]12C)[C@@H](C)CO,45
2,C=C(C(=O)[C@H](OC(C)=O)[C@@H](C)[C@H]1[C@@H](OC(C)=O)C[C@@]2(C)[C@@H]3CC[C@H]4[C@H](C)C(=O)[C@H](O)[C@H]5C[C@]54C3=CC[C@]12C)[C@@H](C)CO,1.2
3,C=C(C(=O)[C@H](O)[C@@H](C)[C@H]1[C@@H](OC(C)=O)C[C@@]2(C)[C@@H]3CC[C@H]4[C@H](C)C(=O)C=C[C@]45C[C@]35CC[C@]12C)[C@@H](C)CO,0.9
4,CC(=O)O[C@H]1C[C@@]2(C)[C@@H]3CC[C@H]4[C@H](C)C(=O)C=C[C@@]45C[C@@]35CC[C@]2(C)[C@H]1[C@H](C)[C@@H](O)C(=O)C=C(C)C,1.1
5,C=C(C(=O)[C@H](O)[C@@H](C)[C@H]1[C@@H](OC(C)=O)C[C@@]2(C)[C@@H]3CC[C@H]4[C@H](C)C(=O)CC[C@@]45C[C@@]35CC[C@]12C)[C@@H](C)CO,1.2
6,CC(=O)O[C@H]1C[C@@]2(C)[C@@H]3CC[C@H]4[C@H](C)C(=O)C=C[C@@]45C[C@@]35CC[C@]2(C)[C@H]1[C@H](C)[C@@H](OC(C)=O)C(=O)C=C(C)C,1.1
7,C=C1C(C)CO[C@@]12C[C@@H](C)[C@H]1[C@H](C[C@@]3(C)[C@@H]4CC[C@H]5[C@](C)(C(=O)O)[C@@H](O)CC[C@@]56C[C@@]46CC[C@]13C)O2 (some centres undefined),1.2

# Next, values leading:
row,fold change (FC),Structure (SMILES)
1,12,C=C(C(=O)[C@H](OC(C)=O)[C@@H](C)[C@H]1[C@@H](OC(C)=O)C[C@@]2(C)[C@@H]3CC[C@H]4[C@H](C)C(=O)C=C[C@@]45C[C@@]35CC[C@]12C)[C@@H](C)COC(C)=O
2,1.1,C=C(C(=O)[C@H](O)[C@@H](C)[C@H]1[C@@H](OC(C)=O)C[C@@]2(C)[C@@H]3C[C@@H](O)[C@H]4[C@H](C)C(=O)C=C[C@@]45C[C@@]35CC[C@]12C)[C@@H](C)CO
3,1,C=C(C(=O)[C@H](OC(C)=O)[C@@H](C)[C@H]1[C@@H](OC(C)=O)C[C@@]2(C)[C@@H]3CC[C@H]4[C@H](C)C(=O)C=C[C@@]45C[C@@]35CC[C@]12C)[C@@H](C)C=O
4,0.9,C=C(C(=O)[C@H](OC(C)=O)[C@@H](C)[C@H]1[C@@H](OC(C)=O)C[C@@]2(C)[C@@H]3CC[C@H]4[C@H](C)C(=O)CC[C@@]45C[C@@]35CC[C@]12C)[C@@H](C)CO
5,2.8,C=C(C(=O)[C@H](OC(C)=O)[C@@H](C)[C@H]1[C@@H](OC(C)=O)C[C@@]2(C)[C@@H]3[C@H]4O[C@H]4[C@H]4[C@H](C)C(=O)C=C[C@@]45C[C@@]35CC[C@]12C)[C@@H](C)CO
6,5.1,C=C(C(=O)[C@H](OC(C)=O)[C@@H](C)[C@H]1[C@@H](OC(C)=O)C[C@@]2(C)[C@@H]3C[C@@H](O)[C@H]4[C@H](C)C(=O)C=C[C@@]45C[C@@]35CC[C@]12C)[C@@H](C)CO

# System: DLD-1
# Test: Inhibition of proteasome activity in human DLD1 cells expressing 4-ubiquitin luciferase reporter protein assessed increase of luciferase signal at 0.5 uM after 7 hrs relative to control
row,Structure (SMILES),fold change (FC)
1,C=C(C(=O)[C@H](OC(C)=O)[C@@H](C)[C@H]1[C@@H](OC(C)=O)C[C@@]2(C)[C@@H]3CC[C@H]4[C@H](C)C(=O)C=C[C@@]45C[C@@]35CC[C@]12C)[C@@H](C)COC(C)=O,1.1
2,C=C(C(=O)[C@H](O)[C@@H](C)[C@H]1[C@@H](OC(C)=O)C[C@@]2(C)[C@@H]3CC[C@H]4[C@H](C)C(=O)C=C[C@@]45C[C@@]35CC[C@]12C)[C@@H](C)CO,1.4
3,C=C(C(=O)[C@H](O)[C@@H](C)[C@H]1[C@@H](OC(C)=O)C[C@@]2(C)[C@@H]3CC[C@H]4[C@H](C)C(=O)C=C[C@]45C[C@]35CC[C@]12C)[C@@H](C)CO,0.9
4,C=C(C(=O)[C@H](OC(C)=O)[C@@H](C)[C@H]1[C@@H](OC(C)=O)C[C@@]2(C)[C@@H]3C[C@@H](O)[C@H]4[C@H](C)C(=O)C=C[C@@]45C[C@@]35CC[C@]12C)[C@@H](C)CO,1.2
